Experiments:
Type in all cases: cell-based
PfCRT^Dd2 [1] = molecular target: T1, PfCRT^Dd2 (Plasmodium falciparum, UniProt Q9N623, A220S/I356T/K76T/M74I/N326S/N75E/Q271E/R371I); assay: cell-based; conditions: for PfCRT-mediated [3H]CQ transport, trans-stimulation (% PfCRTDd2 control): PfCRTDd2 oocytes, normalised to oocyte type control; for [3H]CQ transport (% PfCRTDd2 control), trans-stimulation, PfCRTDd2: PfCRT-mediated component (background subtracted), mean ± SEM, SEM
Procedure, shortened: (§1)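 Oocytes (ten per treatment, ≥4 independent frogs/days) were preloaded by injecting VF-6 in 25 nL ND96 at pH 5.0, 5.5, 6.0 or 7.0, or Na^+-free choline buffer, then uptake run 1.5 h, 27.5 °C, ND96 pH 5.5 by default. Internal concentrations assumed ~400 nL oocyte volume.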

PfCRT^3D7 = PfCRT^3D7 (Plasmodium falciparum, UniProt Q8IBZ9); assay: cell-based; conditions: PfCRT3D7 oocytes, normalised to oocyte type control
Procedure, shortened: as §1

PfCRT^Ecu1110 [2] = molecular target: T2, PfCRT^Ecu1110 (Plasmodium falciparum, UniProt Q9N623, A220S/I356L/K76T/N326D); assay: cell-based; conditions: for PfCRT-mediated [3H]CQ transport, trans-stimulation (% PfCRTEcu1110 control): PfCRTEcu1110 oocytes, normalised to oocyte type control; for [3H]CQ transport (% PfCRTDd2 control), trans-stimulation, PfCRTEcu1110: PfCRT-mediated component (background subtracted), sheet title says normalised to PfCRTDd2 control, mean ± SEM, SEM
Procedure, shortened: as §1

PfCRT^Dd2 [3] = molecular target: T1, PfCRT^Dd2; assay: [3H]CQ uptake into Xenopus oocytes, cis-inhibition by unlabelled solute; conditions: PfCRTDd2 oocytes, background [3H]CQ accumulation subtracted, normalised to oocyte type control
Procedure, shortened: (§2)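 Each treatment used ten oocytes, repeated in at least four experiments on different days with oocytes from different frogs. Conditions: ND96 pH 5.5, 27.5 °C, 1.5 h; read-out by scintillation counting.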

PfCRT^Ecu1110 [4] = molecular target: T2, PfCRT^Ecu1110; assay: as above; conditions: for PfCRT-mediated [3H]CQ transport, cis-inhibition (% PfCRTEcu1110 control): PfCRTEcu1110 oocytes, background [3H]CQ accumulation subtracted, normalised to oocyte type control; for [3H]CQ transport (% PfCRTEcu1110 control), cis-inhibition, PfCRTEcu1110: PfCRT-mediated component (background subtracted), sheet title says normalised to PfCRTDd2 control, mean ± SEM, SEM
Procedure, shortened: as §2

[5] = [test solute]i = 5 mM (intracellular)
[6] = [test solute]i = 45 mM (intracellular; 30 mM for some solutes due to solubility)
[7] = [test solute]i = 5 mM (injected)
[8] = [test solute]i = 45 mM (30 mM for some solutes due to solubility)

T1 sequence (Q9N623 whole entry A220S/I356T/K76T/M74I/N326S/N75E/Q271E/R371I): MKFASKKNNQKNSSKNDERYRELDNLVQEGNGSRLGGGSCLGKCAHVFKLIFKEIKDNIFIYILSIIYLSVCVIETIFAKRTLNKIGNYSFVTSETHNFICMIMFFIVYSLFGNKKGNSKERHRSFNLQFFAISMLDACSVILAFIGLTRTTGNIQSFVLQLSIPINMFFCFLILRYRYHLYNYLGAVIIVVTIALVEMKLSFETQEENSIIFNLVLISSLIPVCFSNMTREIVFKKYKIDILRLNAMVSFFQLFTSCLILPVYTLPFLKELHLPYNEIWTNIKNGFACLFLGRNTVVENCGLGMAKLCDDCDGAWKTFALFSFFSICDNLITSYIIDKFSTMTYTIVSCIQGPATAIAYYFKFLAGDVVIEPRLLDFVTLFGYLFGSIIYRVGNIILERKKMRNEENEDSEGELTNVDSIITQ
T2 sequence (Q9N623 whole entry A220S/I356L/K76T/N326D): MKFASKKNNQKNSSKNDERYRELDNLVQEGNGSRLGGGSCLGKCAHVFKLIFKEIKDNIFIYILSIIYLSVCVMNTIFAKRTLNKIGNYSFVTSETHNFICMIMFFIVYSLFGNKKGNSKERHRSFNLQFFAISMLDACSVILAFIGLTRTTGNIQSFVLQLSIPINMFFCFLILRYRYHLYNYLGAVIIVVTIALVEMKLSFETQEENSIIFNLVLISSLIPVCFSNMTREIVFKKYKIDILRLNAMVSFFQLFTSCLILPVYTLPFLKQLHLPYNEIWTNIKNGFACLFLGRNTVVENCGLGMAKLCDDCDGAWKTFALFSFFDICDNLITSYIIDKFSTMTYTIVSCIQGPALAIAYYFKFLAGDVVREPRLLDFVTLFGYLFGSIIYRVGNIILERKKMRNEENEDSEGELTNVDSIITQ
Chain of PfCRT^3D7 (Q8IBZ9 59-398): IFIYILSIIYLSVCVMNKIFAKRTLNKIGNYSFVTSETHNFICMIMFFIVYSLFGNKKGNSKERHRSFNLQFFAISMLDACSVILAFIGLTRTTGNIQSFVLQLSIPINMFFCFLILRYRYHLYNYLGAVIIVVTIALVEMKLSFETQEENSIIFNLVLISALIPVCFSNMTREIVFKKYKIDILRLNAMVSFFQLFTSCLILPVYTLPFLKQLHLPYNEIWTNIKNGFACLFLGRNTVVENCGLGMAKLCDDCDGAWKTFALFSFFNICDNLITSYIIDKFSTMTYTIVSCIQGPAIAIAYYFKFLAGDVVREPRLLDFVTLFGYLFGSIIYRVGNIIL

Row | Substance | PfCRT-mediated [3H]CQ transport, trans-stimulation (% PfCRTDd2 control) (PfCRT^Dd2 [1]; [5]) | PfCRT-mediated [3H]CQ transport, trans-stimulation (% PfCRTDd2 control) (PfCRT^Dd2 [1]; [6]) | [3H]CQ transport (% PfCRTDd2 control), trans-stimulation, PfCRTDd2 (PfCRT^Dd2 [1]; [7]) | [3H]CQ transport (% PfCRTDd2 control), trans-stimulation, PfCRTDd2 (PfCRT^Dd2 [1]; [8]) | PfCRT-mediated [3H]CQ transport, trans-stimulation (% PfCRT3D7 control) (PfCRT^3D7; [5]) | PfCRT-mediated [3H]CQ transport, trans-stimulation (% PfCRT3D7 control) (PfCRT^3D7; [6]) | PfCRT-mediated [3H]CQ transport, trans-stimulation (% PfCRTEcu1110 control) (PfCRT^Ecu1110 [2]; [5]) | PfCRT-mediated [3H]CQ transport, trans-stimulation (% PfCRTEcu1110 control) (PfCRT^Ecu1110 [2]; [6]) | [3H]CQ transport (% PfCRTDd2 control), trans-stimulation, PfCRTEcu1110 (PfCRT^Ecu1110 [2]; [7]) | [3H]CQ transport (% PfCRTDd2 control), trans-stimulation, PfCRTEcu1110 (PfCRT^Ecu1110 [2]; [8]) | PfCRT-mediated [3H]CQ transport, cis-inhibition (% PfCRTDd2 control) (PfCRT^Dd2 [3]; [test solute] = 0.5 mM) | PfCRT-mediated [3H]CQ transport, cis-inhibition (% PfCRTDd2 control) (PfCRT^Dd2 [3]; [test solute] = 1 mM) | PfCRT-mediated [3H]CQ transport, cis-inhibition (% PfCRTDd2 control) (PfCRT^Dd2 [3]; [test solute] = 2 mM) | PfCRT-mediated [3H]CQ transport, cis-inhibition (% PfCRTEcu1110 control) (PfCRT^Ecu1110 [4]; [test solute] = 0.5 mM) | PfCRT-mediated [3H]CQ transport, cis-inhibition (% PfCRTEcu1110 control) (PfCRT^Ecu1110 [4]; [test solute] = 1 mM) | [3H]CQ transport (% PfCRTEcu1110 control), cis-inhibition, PfCRTEcu1110 (PfCRT^Ecu1110 [4]; [test solute] = 0.5 mM) | [3H]CQ transport (% PfCRTEcu1110 control), cis-inhibition, PfCRTEcu1110 (PfCRT^Ecu1110 [4]; [test solute] = 1 mM) | [3H]CQ transport (% PfCRTEcu1110 control), cis-inhibition, PfCRTEcu1110 (PfCRT^Ecu1110 [4]; [test solute] = 2 mM) | PfCRT-mediated [3H]CQ transport, cis-inhibition (% PfCRTEcu1110 control) (PfCRT^Ecu1110 [4]; [test solute] = 2 mM)
1 | HAGEYG [HG-6] | 101 ± 3.3 % PfCRTDd2 control | 98 ± 2.5 % PfCRTDd2 control | 101 ± 3.3 % PfCRTDd2 control | 98 ± 2.5 % PfCRTDd2 control | 136 ± 3.6 % PfCRT3D7 control | 190 ± 4.2 % PfCRT3D7 control | 98 ± 2.4 % PfCRTEcu1110 control | 96 ± 3.3 % PfCRTEcu1110 control | 30 ± 1.5 % PfCRTEcu1110 control | 29 ± 1.3 % PfCRTEcu1110 control | 36 ± 2.1 % PfCRTDd2 control | 22 ± 0.9 % PfCRTDd2 control | 9.3 ± 0.1 % PfCRTDd2 control | 35 ± 4.6 % PfCRTEcu1110 control | 27 ± 4.1 % PfCRTEcu1110 control | 11 ± 0.5 % PfCRTEcu1110 control | 9.0 ± 0.05 % PfCRTEcu1110 control | 4.0 ± 0.01 % PfCRTEcu1110 control | –
2 | HFDLS [HS-5] | 100 ± 3.2 % PfCRTDd2 control | 112 ± 1.1 % PfCRTDd2 control | 100 ± 3.2 % PfCRTDd2 control | 112 ± 1.1 % PfCRTDd2 control | 139 ± 4.1 % PfCRT3D7 control | 166 ± 3.2 % PfCRT3D7 control | 120 ± 2.1 % PfCRTEcu1110 control | 131 ± 1.8 % PfCRTEcu1110 control | 36 ± 1.3 % PfCRTEcu1110 control | 40 ± 1.4 % PfCRTEcu1110 control | 20 ± 0.1 % PfCRTDd2 control | 9 ± 0.2 % PfCRTDd2 control | 3.2 ± 0.1 % PfCRTDd2 control | 20 ± 1.3 % PfCRTEcu1110 control | – | – | 3.0 ± 0.04 % PfCRTEcu1110 control | 1.0 ± 0.06 % PfCRTEcu1110 control | 4.3 ± 0.1 % PfCRTEcu1110 control
3 | HVDDMP [HP-6] | 103 ± 1.1 % PfCRTDd2 control | 112 ± 1.1 % PfCRTDd2 control | 103 ± 1.1 % PfCRTDd2 control | 112 ± 1.1 % PfCRTDd2 control | 142 ± 3.3 % PfCRT3D7 control | 190 ± 4.3 % PfCRT3D7 control | 122 ± 4.2 % PfCRTEcu1110 control | 139 ± 3.4 % PfCRTEcu1110 control | 36 ± 1.3 % PfCRTEcu1110 control | 42 ± 1.3 % PfCRTEcu1110 control | 22 ± 2.9 % PfCRTDd2 control | 16 ± 1.2 % PfCRTDd2 control | 4.1 ± 0.1 % PfCRTDd2 control | 40 ± 1.0 % PfCRTEcu1110 control | 31 ± 1.6 % PfCRTEcu1110 control | – | – | 7.0 ± 0.02 % PfCRTEcu1110 control | 21 ± 1.6 % PfCRTEcu1110 control
4 | HVDDMPN [HN-7] | 100 ± 3.2 % PfCRTDd2 control | 98 ± 3.5 % PfCRTDd2 control | 100 ± 3.2 % PfCRTDd2 control | 98 ± 3.5 % PfCRTDd2 control | 142 ± 4.5 % PfCRT3D7 control | 187 ± 4.5 % PfCRT3D7 control | 132 ± 4.3 % PfCRTEcu1110 control | 140 ± 4.2 % PfCRTEcu1110 control | 40 ± 2.5 % PfCRTEcu1110 control | 42 ± 2.4 % PfCRTEcu1110 control | 37 ± 1.7 % PfCRTDd2 control | 20 ± 0.5 % PfCRTDd2 control | 9.2 ± 1.1 % PfCRTDd2 control | 36 ± 1.6 % PfCRTEcu1110 control | 31 ± 3.5 % PfCRTEcu1110 control | 11 ± 0.6 % PfCRTEcu1110 control | – | 7.0 ± 0.05 % PfCRTEcu1110 control | 21 ± 1.3 % PfCRTEcu1110 control
5 | HVDDMPNA [HA-8] | 96 ± 3.1 % PfCRTDd2 control | 96 ± 2.1 % PfCRTDd2 control | – | – | 99 ± 3.8 % PfCRT3D7 control | 97 ± 4.1 % PfCRT3D7 control | 95 ± 2.2 % PfCRTEcu1110 control | 99 ± 3.8 % PfCRTEcu1110 control | – | – | 48 ± 3.1 % PfCRTDd2 control | 27 ± 0.4 % PfCRTDd2 control | 20 ± 1.3 % PfCRTDd2 control | 50 ± 2.1 % PfCRTEcu1110 control | 40 ± 2.5 % PfCRTEcu1110 control | – | – | – | 27 ± 1.4 % PfCRTEcu1110 control
